# Target: T1, human glucagon receptor (Homo sapiens, UniProt P47871)
# T1 construct: made in house; host or cells: FreeStyle CHO cells, transient transfection with pMSRαneo/hGCGR; membrane fraction (35,000 rpm pellet)
# Assay: Glucagon binding inhibitory activity ([125I]-glucagon binding to glucagon receptor membrane protein)
# Conditions: human glucagon receptor membrane protein, [125I]-glucagon, 90 min room temperature
# Description: The glucagon binding inhibitory action of the compound of the present invention was evaluated by the following method.
# (1) Cloning of Human Glucagon Receptor Gene
# Human glucagon receptor gene was cloned by PCR reaction using human pancreas Marathon-ready cDNA (Clontech) as a template and the following primer set.
# PCR reaction was performed using Advantage 2 polymerase (Clontech) and according to the attached protocol. The obtained PCR product was electrophoresed on an agarose gel (1%). An about 1.4 kb of DNA fragment containing a glucagon receptor gene was recovered from the gel and digested with restriction enzymes EcoRI and NotI. DNA treated with the restriction enzymes was electrophoresed on an agarose gel (1%). An about 1.4 kb of DNA fragment was recovered and ligated to plasmid pMSRαneo digested with restriction enzymes EcoRI and NotI to construct a human-type glucagon receptor expression plasmid DNA “pMSRαneo/hGCGR”.
# (2) Preparation of Glucagon Receptor Membrane Protein
# A human-type glucagon receptor was expressed using FreeStyle CHO Expression System (Invitrogen). A transient expression in FreeStyle CHO cell was performed using a human-type glucagon receptor expression plasmid DNA “pMSRαneo/hGCGR” and according to the manual attached to the FreeStyle CHO Expression System. The above-mentioned DNA was transfected and the cultured with shaking for 2 days (37° C., 8% CO2, 125 rpm). 2400 ml of culture medium was centrifuged at 2,000 rpm for 10 min and the cells were collected. The collected cells were washed with PBS, suspended in homogenate buffer [10 mM NaHCO3 (pH 7.4), 1 mM EDTA, Complete EDTA-free (Roche, 1 tablet/50 ml)] and disrupted by polytron cell disrupter (Kinematica AG). Disruption solution was centrifuged at 2,000 rpm for 10 min and the supernatant was collected.
# (3) Measurement of Glucagon Binding Inhibitory Activity
# The plate was stood for 90 min at room temperature. The reaction solution was transferred from the reaction plate to a 96 well unifilter GF/C plate (Perkin Elmer Inc.) using a cell harvester (Perkin Elmer Inc.) and the membrane fraction was collected on the filter by suction. The filter was presoaked in 2 mg/ml of polyethyleneimine to prevent non-specific adsorption of labeled ligand. The filter was washed 4 times with a reaction buffer and dried for 2 hr at 42° C. To each well was added 25 μl of scintillator (MicroScint0; Perkin Elmer Inc.), and the fluorescence amount was measured using a microplate scintillation counter (TopCount NXT™; Perkin Elmer Inc.).
# In addition, the inhibitory rate (%) of the well added with the test compound (10 μM; containing 0.4% DMSO) was calculated, using the reaction rate of the well added only with 0.4% DMSO as 0% inhibitory rate, and the reaction rate of the well added with non-labeled glucagon (final concentration 1 μM) as 100% inhibitory rate.
# T1 sequence (P47871 26-477): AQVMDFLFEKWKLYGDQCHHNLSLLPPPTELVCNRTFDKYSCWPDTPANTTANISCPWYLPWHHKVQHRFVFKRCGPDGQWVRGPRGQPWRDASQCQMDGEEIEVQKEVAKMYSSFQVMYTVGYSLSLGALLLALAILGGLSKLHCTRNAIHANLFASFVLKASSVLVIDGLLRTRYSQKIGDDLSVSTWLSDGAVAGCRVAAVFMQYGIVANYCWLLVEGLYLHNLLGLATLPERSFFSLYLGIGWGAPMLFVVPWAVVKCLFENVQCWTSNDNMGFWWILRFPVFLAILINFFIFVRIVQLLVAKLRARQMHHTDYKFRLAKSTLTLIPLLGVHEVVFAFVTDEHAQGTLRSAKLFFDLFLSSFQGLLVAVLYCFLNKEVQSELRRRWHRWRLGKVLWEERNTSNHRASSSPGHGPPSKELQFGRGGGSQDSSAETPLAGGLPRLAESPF
row,IC50 [nM],SMILES
1,320,"CN(CCC(=O)O)C(=O)c1ccc(NC(c2cn(-c3ccc(OC(F)(F)F)cc3)nc2OCc2ccccc2)C2CCCCC2)cc1 (stereo not shown) [Example 61, 3-{[(4-{[{3-(benzyloxy)-1-[4-(trifluoromethoxy)phenyl]-1H-pyrazol-4-yl}(cyclohexyl)methyl]amino}phenyl)carbonyl](methyl)amino}-propanoic acid]"

# Same assay, conditions: test compound 10 μM; 0.4% DMSO = 0%, non-labeled glucagon 1 μM = 100%; read-out: inhibitory rate (%) at 10 μM
row,inhibition at 10 µM [%],SMILES
1,60,"CCc1nn(-c2ccc(OC)cc2)cc1C(Nc1ccc(C(=O)N(C)CCC(=O)O)cc1)C1CCCCC1 (stereo not shown) [Example 51, 3-[{[4-({cyclohexyl[3-ethyl-1-(4-methoxyphenyl)-1H-pyrazol-4-yl]methyl}amino)phenyl]carbonyl}(methyl)amino]propanoic acid]"
2,63,"COc1ccc(-n2cc(C(Nc3ccc(C(=O)NCCC(=O)O)cc3)C3CCCCC3)c(C(C)C)n2)cc1 (stereo not shown) [Example 52, 3-({[4-({cyclohexyl[1-(4-methoxyphenyl)-3-(1-methylethyl)-1H-pyrazol-4-yl]methyl}amino)phenyl]carbonyl}amino)propanoic acid]"
3,62,"COc1ccc(-n2cc(C(CC(C)C)Nc3ccc(C(=O)NCCC(=O)O)cc3)c(C(C)C)n2)cc1 (stereo not shown) [Example 54, 3-({[4-({1-[1-(4-methoxyphenyl)-3-(1-methylethyl)-1H-pyrazol-4-yl]-3-methylbutyl}amino)phenyl]carbonyl}amino)propanoic acid]"
4,76,"CCn1nc(-c2ccc(C(F)(F)F)cc2)cc1C(Nc1ccc(C(=O)NCCC(=O)O)cc1)C1CCCCC1 (stereo not shown) [Example 56, 3-[({4-[(cyclohexyl{1-ethyl-3-[4-(trifluoromethyl)phenyl]-1H-pyrazol-5-yl}methyl)amino]phenyl}carbonyl)amino]propanoic acid]"
5,69,"CCn1nc(-c2ccc(OC(F)(F)F)cc2)cc1C(Nc1ccc(C(=O)N(C)CCC(=O)O)cc1)C1CCCCC1 (stereo not shown) [Example 58, 3-[({4-[(cyclohexyl{1-ethyl-3-[4-(trifluoromethoxy)phenyl]-1H-pyrazol-5-yl}methyl)amino]phenyl}carbonyl)(methyl)amino]propanoic acid]"
6,61,"CCn1nc(-c2ccc(OC(F)(F)F)cc2)cc1C(CC(C)C)Nc1ccc(C(=O)N(C)CCC(=O)O)cc1 (stereo not shown) [Example 59, 3-[({4-[(1-{1-ethyl-3-[4-(trifluoromethoxy)phenyl]-1H-pyrazol-5-yl}-3-methylbutyl)amino]phenyl}carbonyl)(methyl)amino]propanoic acid]"
7,71,"O=C(O)CCNC(=O)c1ccc(NC(c2cn(-c3ccc(OC(F)(F)F)cc3)nc2OCc2ccccc2)C2CCCCC2)cc1 (stereo not shown) [Example 60, 3-{[(4-{[{3-(benzyloxy)-1-[4-(trifluoromethoxy)phenyl]-1H-pyrazol-4-yl}(cyclohexyl)methyl]amino}phenyl)carbonyl]amino}propanoic acid]"
8,75,"CN(CCC(=O)O)C(=O)c1ccc(NC(c2cn(-c3ccc(OC(F)(F)F)cc3)nc2OCc2ccccc2)C2CCCCC2)cc1 (stereo not shown) [Example 61, 3-{[(4-{[{3-(benzyloxy)-1-[4-(trifluoromethoxy)phenyl]-1H-pyrazol-4-yl}(cyclohexyl)methyl]amino}phenyl)carbonyl](methyl)amino}-propanoic acid]"
9,68,"COc1nn(-c2ccc(OC(F)(F)F)cc2)cc1C(Nc1ccc(C(=O)NCCC(=O)O)cc1)C1CCCCC1 (stereo not shown) [Example 62, 3-[({4-[(cyclohexyl{3-methoxy-1-[4-(trifluoromethoxy)phenyl]-1H-pyrazol-4-yl}methyl)amino]phenyl}carbonyl)amino]propanoic acid]"
10,72,"COc1nn(-c2ccc(OC(F)(F)F)cc2)cc1C(Nc1ccc(C(=O)N(C)CCC(=O)O)cc1)C1CCCCC1 (stereo not shown) [Example 63, 3-[({4-[(cyclohexyl{3-methoxy-1-[4-(trifluoromethoxy)phenyl]-1H-pyrazol-4-yl}methyl)amino]phenyl}carbonyl)(methyl)amino]propanoic acid]"
11,70,"CC(C)Oc1nn(-c2ccc(OC(F)(F)F)cc2)cc1C(Nc1ccc(C(=O)NCCC(=O)O)cc1)C1CCCCC1 (stereo not shown) [Example 64, 3-[({4-[(cyclohexyl{3-(1-methylethoxy)-1-[4-(trifluoromethoxy)phenyl]-1H-pyrazol-4-yl}methyl)amino]phenyl}carbonyl)amino]propanoic acid]"
12,64,"CC(C)Oc1nn(-c2ccc(OC(F)(F)F)cc2)cc1C(Nc1ccc(C(=O)N(C)CCC(=O)O)cc1)C1CCCCC1 (stereo not shown) [Example 65, 3-[({4-[(cyclohexyl{3-(1-methylethoxy)-1-[4-(trifluoromethoxy)phenyl]-1H-pyrazol-4-yl}methyl)amino]phenyl}carbonyl)(methyl)amino]propanoic acid]"
13,74,"O=C(O)CCNC(=O)c1ccc(NC(c2cn(-c3ccccc3)nc2OCc2ccccc2)C2CCCCC2)cc1 (stereo not shown) [Example 66, 3-({[4-({[3-(benzyloxy)-1-phenyl-1H-pyrazol-4-yl](cyclohexyl)methyl}amino)phenyl]carbonyl}amino)propanoic acid]"
14,72,"CN(CCC(=O)O)C(=O)c1ccc(NC(c2cn(-c3ccccc3)nc2OCc2ccccc2)C2CCCCC2)cc1 (stereo not shown) [Example 67, 3-[{[4-({[3-(benzyloxy)-1-phenyl-1H-pyrazol-4-yl](cyclohexyl)methyl}amino)phenyl]carbonyl}(methyl)amino]-propanoic acid]"
15,66,"COc1ccc(-n2cc(C(Nc3ccc(C(=O)NCCC(=O)O)cc3)C3CCCCC3)c(CN3CCOCC3)n2)cc1 (stereo not shown) [Example 68, 3-({[4-({cyclohexyl[1-(4-methoxyphenyl)-3-(morpholin-4-ylmethyl)-1H-pyrazol-4-yl]methyl}amino)phenyl]carbonyl}amino)propanoic acid]"
16,75,"COc1cccc(-n2cc(C(Nc3ccc(C(=O)N(C)CCC(=O)O)cc3)C3CCCCC3)c(C)n2)c1 (stereo not shown) [Example 70, 3-[{[4-({cyclohexyl[1-(3-methoxyphenyl)-3-methyl-1H-pyrazol-4-yl]methyl}amino)phenyl]carbonyl}(methyl)amino]propanoic acid]"
17,71,"Cc1nn(-c2cccc(Cl)c2)cc1C(Nc1ccc(C(=O)N(C)CCC(=O)O)cc1)C1CCCCC1 (stereo not shown) [Example 71, 3-[{[4-({[1-(3-chlorophenyl)-3-methyl-1H-pyrazol-4-yl](cyclohexyl)methyl}amino)phenyl]carbonyl}(methyl)amino]-propanoic acid]"
18,51,"COc1ccccc1-n1cc(C(Nc2ccc(C(=O)N(C)CCC(=O)O)cc2)C2CCCCC2)c(C)n1 (stereo not shown) [Example 72, 3-[{[4-({[1-(2-methoxyphenyl)-3-methyl-1H-pyrazol-4-yl](cyclohexyl)methyl}amino)phenyl]carbonyl}(methyl)amino]-propanoic acid]"
19,59,"Cc1nn(-c2ccccc2Cl)cc1C(Nc1ccc(C(=O)N(C)CCC(=O)O)cc1)C1CCCCC1 (stereo not shown) [Example 73, 3-[{[4-({[1-(2-chlorophenyl)-3-methyl-1H-pyrazol-4-yl](cyclohexyl)methyl}amino)phenyl]carbonyl}(methyl)amino]-propanoic acid]"
20,61,"COc1cccc(-n2cc(C)c(C(Nc3ccc(C(=O)N(C)CCC(=O)O)cc3)C3CCCCC3)n2)c1 (stereo not shown) [Example 75, 3-[{[4-({cyclohexyl[1-(3-methoxyphenyl)-4-methyl-1H-pyrazol-3-yl]methyl}amino)phenyl]carbonyl}(methyl)amino]propanoic acid]"
21,68,COCc1nn(-c2cccc(OC)c2)cc1C(Nc1ccc(C(=O)N(C)CCC(=O)O)cc1)C1CCCCC1 (stereo not shown) [Example 76]
22,55,"COc1ccccc1-n1cc(C)c(C(Nc2ccc(C(=O)N(C)CCC(=O)O)cc2)C2CCCCC2)n1 (stereo not shown) [Example 77, 3-[{[4-({cyclohexyl[1-(2-methoxyphenyl)-4-methyl-1H-pyrazol-3-yl]methyl}amino)phenyl]carbonyl}(methyl)amino]propanoic acid]"
23,69,"CCc1nn(-c2cccc(OC)c2)cc1C(Nc1ccc(C(=O)N(C)CCC(=O)O)cc1)C1CCCCC1 (stereo not shown) [Example 78, 3-[{[4-({cyclohexyl[3-ethyl-1-(3-methoxyphenyl)-1H-pyrazol-4-yl]methyl}amino)phenyl]carbonyl}(methyl)amino]propanoic acid]"
24,67,"COc1cccc(-n2cc(C(Nc3ccc(C(=O)N(C)CCC(=O)O)cc3)C3CCCCC3)c(C(C)C)n2)c1 (stereo not shown) [Example 79, 3-[{[4-({cyclohexyl[1-(3-methoxyphenyl)-3-(1-methylethyl)-1H-pyrazol-4-yl]methyl}amino)phenyl]carbonyl}(methyl)amino]propanoic acid]"
